# PubChem BioAssay (NCI)
#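 Growth conditions: 96-well plates. Treatment: test compound, 48 hours, 5 concentrations. Analysis: linear interpolation between bracketing concentrations; unreached endpoints set to highest concentration. Definition used: TGI = concentration required for complete inhibition of growth.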
# What was measured:
# Test in all cases: NCI tumour cell line growth inhibition, 48 h
# SN12C renal = tested on: SN12C renal
# ACHN renal = tested on: ACHN renal
# MDA-MB-435 = tested on: MDA-MB-435
# PC-3 prostate = tested on: PC-3 prostate
# LOX IMVI melanoma = tested on: LOX IMVI melanoma
# A498 renal = tested on: A498 renal
# SNB-75 CNS = tested on: SNB-75 CNS
# SK-MEL-28 melanoma = tested on: SK-MEL-28 melanoma
# OVCAR-4 ovarian = tested on: OVCAR-4 ovarian
# CCRF-CEM leukemia = tested on: CCRF-CEM leukemia
# CAKI-1 renal = tested on: CAKI-1 renal
# HCT-116 colon = tested on: HCT-116 colon
# COLO 205 colon = tested on: COLO 205 colon
# SF-268 CNS = tested on: SF-268 CNS
# MALME-3M melanoma = tested on: MALME-3M melanoma
# XF 498 CNS = tested on: XF 498 CNS
# P388/ADR leukemia = tested on: P388/ADR leukemia
# KM20L2 colon = tested on: KM20L2 colon
# SN12K1 renal = tested on: SN12K1 renal
# P388 leukemia = tested on: P388 leukemia
SMILES,TGI (SN12C renal) [µM],TGI (ACHN renal) [µM],TGI (MDA-MB-435) [µM],TGI (PC-3 prostate) [µM],TGI (LOX IMVI melanoma) [µM],TGI (A498 renal) [µM],TGI (SNB-75 CNS) [µM],TGI (SK-MEL-28 melanoma) [µM],TGI (OVCAR-4 ovarian) [µM],TGI (CCRF-CEM leukemia) [µM],TGI (CAKI-1 renal) [µM],TGI (HCT-116 colon) [µM],TGI (COLO 205 colon) [µM],TGI (SF-268 CNS) [µM],TGI (MALME-3M melanoma) [µM],TGI (XF 498 CNS) [µM],TGI (P388/ADR leukemia) [µM],TGI (KM20L2 colon) [µM],TGI (SN12K1 renal) [µM],TGI (P388 leukemia) [µM]
O=C1OC[C@@H]2[C@@H](O)CCCCCN12,> 100,> 100,> 100,> 100,> 100,> 100,> 100,> 100,> 100,> 100,> 100,> 100,> 100,–,–,–,–,–,–,–
CCOc1ccc2nc(-c3ccc(O)cc3)sc2c1,> 100,> 100,> 100,> 100,> 100,> 100,–,–,–,–,> 100,> 100,> 100,91.3,> 100,–,–,–,–,–
N/C(=N\N=C/c1ccccc1O)NO,> 100,–,–,–,> 100,44.4,> 29.9,> 100,31.1,> 50.9,24,47.8,> 27.4,90.5,> 84.1,37.4,10.8,> 100,> 100,18.7
O=C1OC(c2ccccc2)=N/C1=C\c1cccnc1,–,> 100,> 100,> 100,–,–,> 100,> 100,> 100,> 100,–,–,–,> 100,–,–,–,–,–,–
Nc1ncnc2c1ncn2C1OC(COP(=O)(O)O)C(O)C1O (stereo not drawn),> 50,–,–,–,> 50,> 50,> 50,> 50,> 50,> 50,> 50,> 50,> 50,> 50,> 50,> 44.7,> 50,> 50,> 50,> 37.3
CC1(C)CC23C4COC(=O)C2CCC1C3CC4=O (stereo not drawn),42.5,–,–,–,22.6,13.8,57.6,18.9,64.2,43.4,43,21.9,33.6,50.9,23.3,27.2,84.5,54.6,48.2,111
